From patent US5008416A, “Organogermanium compound, process for the preparation of same as well as use thereof” (Sanwa Kagaku Kenkyusho Co., Ltd., priority 1989, dated 1991)
Like-named read-outs stand apart in the source and are kept apart here.

Legend:
Sarcoma 180 tumor cells = experiment: Anti-tumor effect, Sarcoma 180 (Pharmacological Experiment 7); type: in vivo, mouse (ICR male); conditions: for Inhibition (development of solid tumor) / Tumor weight: 10 days, 20th day; for Tumor weight: mean ± standard error, n = 10
Method: An anti-tumor effect of the organogermanium compound according to the invention is examined to Sarcoma 180 tumor cells.
Sarcoma 180 tumor cells were subcutaneously implanted with 2×10^6cells to male ICR mice (n=10) as experimental animals to form a solid tumor. The organogermanium compound (Example 4) dissolved in 4% bovine serum albumin was orally administered at the dose of 0.1, 1.0 and 10.0 mg/kg once a day for 10 days on the day after the implantation.
On the 20th day from the implantation, formed solid tumor was removed and weighed. An antitumor effect represented the inhibitory percent of the compound on the development of solid tumor.

tumor bearing mice [1] = experiment: Influence on antibody production in tumor bearing mice (Pharmacological Experiment 1); type: in vivo, mouse (ICR male); conditions: for Number of PFC: 5 days, mean ± standard error, n = 7
Method: Influence of the organogermanium compound on antibody production ability is checked with use of tumor bearing mice, as experimental animals reduced in their immunity response.
Tumor bearing mice were prepared by implanting 2×10^6 cells of mouse tumor cell (Sarcoma 180) under a skin of each ICR male mouse (age of 6 weeks) to form a solid tumor.
The organogermanium compound (Production Example 4) dissolved in 4% bovine serum albumin solution was orally administered to the tumor bearing mice over 5 days after lapsed 9 days from the implantation of the tumor cells, by a dose of 0.1, 1.0 or 10.0 mg/kg/day.
After lapsed 14 days from the implantation, 2×10^8 cells of sheep red blood cells (SRBC) were injected in a tail vein of the mice for sensitization. After 4 days from the sensitization, spleen was removed and number of PFC in 10^6 spleen cells was measured, as an index of the antibody production in the tumor bearing mice.

[2] = test system: interferon (IFN) production; type: in vivo, mouse (BALB/c male); conditions: for INF titer: lung supernatant, three days, mean ± standard error, n = 5
[3] = test system: acute liver injury induced by galactosamine (serum transaminases); experiment: Action to acute liver injury induced by galactosamine (Pharmacological Experiment 10); type: in vivo, rat (Wister male); conditions: for s-GPT / s-GOT: 5 days, 48 hours, mean ± standard error, n = 10
Method: An action of the organogermanium compound of the invention to an acute liver injury to be induced by galactosamine, as an experimental model for liver injury is checked, through measurement of serum transaminases, as indexes.
To Wister male rats (n=10 for each group), galactosamine was administered into abdominal canal by a dose of 400 mg/kg at 2 times with an interval of 6 hours to induce a acute liver injury.
To the […] in each Test group, the compound according to the invention (Example 4) dissolved in 4% bovine serum albumin solution was orally administered by 0.1, 1.0 or 10.0 mg/kg/day over 5 days beginning from 3 days before the administration of galactosamine.
After having lapsed 48 hours from the first administration of galactosamine, a blood letting was carried out to measure GOT and GPT values in serum.

normal mice = experiment: Influence on delayed type hypersensitivity in normal mice (Pharmacological Experiment 4); type: in vivo, mouse (ICR male); conditions: for Food pad swelling: 24 hours, mean ± standard error, n = 10
Method: Influence of the organogermanium compound on the DTH response of normal mice is investigated.
Normal ICR male mice (age of 8 weeks) were immunized with 10^6 cells of SRBC by intravenous route. On 4 days after immunization, the organogermanium compound (Example 4) dissolved in 4% bovine serum albumin was orally administered at the dose of 0.1, 1.0 and 10.0 mg/kg. Just after the treatment with the compound, mice were challenged to intracutaneus injection of 2×10^8 cells of SRBC to hind food pad.
After 24 hours from the injection, the swelling of the foot pad was observed by a stereoscopic microscope.

Lewis lung carcinoma = experiment: Anti-tumor effect, Lewis lung carcinoma (Pharmacological Experiment 6); type: in vivo, mouse (C57BL/6 male); conditions: for Inhibition (development of solid tumor) / Tumor weight: 5 days, 14th day; for Tumor weight: mean ± standard deviation, n = 10
Method: An anti-tumor effect of the organogermanium compound according to the invention is examined.
C57BL/6 male mice (n=10) as experimental animals were subcutaneously implanted with 1×10^5 cells of Lewis lung carcinoma to form a solid tumor. The organogermanium compound (Example 4) dissolved in 4% bovine serum albumin was orally administered at the dose of 0.1, 1.0 and 10.0 mg/kg once a day for 5 days on days 1 to 5 after the tumor implantation.
On 14th day from the implantation, formed solid tumor was removed and weighed. An antitumor effect represented the inhibitory percent of the compound on the development of solid tumor.

tumor bearing mice [4] = experiment: Influence on delayed type hypersensitivity in tumor bearing mice (Pharmacological Experiment 3); type: in vivo, mouse (ICR male); conditions: for Foot pad swelling: 24 hours, mean ± standard error, n = 10
Method: To investigate the effect of the organogermanium compound on the cellular immunity, we employed the delayed type hypersensitivity (DTH) of mice. Tumor bearing mice were used as experimental animals with reduced immunity and effect of the compound on the reduced DTH reaction was assayed.
Sarcoma 180 cells (10^6 cells) were intraperitoneally implanted to ICR male mice (age of 8 weeks) and after 3 hours from the implantation, 10^6 cells of SRBC were injected by intravenous route. Four days later, 2×10^8 cells of SRBC were intracutaneus injection to hind foot pad. After 24 hours from the injection, the swelling of the foot pad was observed by stereoscopic microscope.
To the mice in each test group, the organogermanium compound (Example 4) dissolved in 4% bovine serum albumin was orally administered at the time 4 days before the immunization at the dose of 0.1, 1.0 and 10.0 mg/kg.

[5] = 1.0 mg/kg orally once a day, (*) p < 0.05 vs Control

## Sodium 2-oxygermylethanesulfonate polymer [Example 4]
Sarcoma 180 tumor cells; 0.1 mg/kg orally once a day
  Inhibition (development of solid tumor): 28%
  Tumor weight: 1.87 ± 0.46 g
Sarcoma 180 tumor cells; 1.0 mg/kg orally once a day
  Inhibition (development of solid tumor): 69%
Sarcoma 180 tumor cells; [5]
  Tumor weight: 0.82 ± 0.22 g
Sarcoma 180 tumor cells; 10.0 mg/kg orally once a day
  Inhibition (development of solid tumor): 38%
  Tumor weight: 1.61 ± 0.29 g
Sarcoma 180 tumor cells; 0.1, 1.0 and 10.0 mg/kg orally
  Growth of Sarcoma 180 solid tumor (result in words): reduced the growth of Sarcoma 180 solid tumor cells
Tumor bearing mice [1]; 0.1 mg/kg/day orally, (*) p < 0.05 vs tumor bearing
  Number of PFC: 745 ± 66 PFC in 10^6 spleen cells
Tumor bearing mice [1]; 1.0 mg/kg/day orally
  Number of PFC: 948 ± 195 PFC in 10^6 spleen cells
Tumor bearing mice [1]; 10.0 mg/kg/day orally, (***) p < 0.001 vs tumor bearing
  Number of PFC: 1071 ± 89 PFC in 10^6 spleen cells
Tumor bearing mice [1]; 0.1-10.0 mg/kg/day orally, depending on dosing amount
  Antibody production (result in words): the reduced antibody production due to generation of the tumor increased to a normal level
[2]; 0.1 mg/kg orally
  INF titer: 49.3 ± 5.3 IU/mg protein
[2]; 1.0 mg/kg orally
  IFN activity, times higher than the control group: about 2.5 times
[2]; 1.0 mg/kg orally, (**) p < 0.01 vs control
  INF titer: 138.3 ± 17.1 IU/mg protein
[2]; 10.0 mg/kg orally
  IFN activity, times higher than the control group: ~2.8 times
[2]; 10.0 mg/kg orally, (**) p < 0.01 vs control
  INF titer: 156.7 ± 28.3 IU/mg protein
[3]; 0.1 mg/kg/day orally
  s-GPT: 382 ± 151 Karmen Unit
[3]; 0.1 mg/kg/day orally, (*) p < 0.05 vs Control
  s-GOT: 1034 ± 184
[3]; 1.0 mg/kg/day orally, (*) p < 0.05 vs Control
  s-GPT: 238 ± 87 Karmen Unit
[3]; 1.0 mg/kg/day orally, (***) p < 0.001 vs Control
  s-GOT: 563 ± 133
[3]; 10.0 mg/kg/day orally, (*) p < 0.05 vs Control
  s-GPT: 275 Karmen Unit
[3]; 10.0 mg/kg/day orally, (**) p < 0.01 vs Control
  s-GOT: 620 ± 201
[3]; 0.1, 1.0 or 10.0 mg/kg/day orally
  GOT and GPT values (result in words): noticeably decreasing GOT and GPT values
Normal mice; 0.1 mg/kg orally, (**) p < 0.01 vs Control
  Food pad swelling: 70.9 ± 9.1 x 0.01 mm
Normal mice; 1.0 mg/kg orally, (***) p < 0.001 vs Control
  Food pad swelling: 59.0 ± 6.6 x 0.01 mm
Normal mice; 10.0 mg/kg orally, (*) p < 0.05 vs Control
  Food pad swelling: 86.9 ± 10.2 x 0.01 mm
Normal mice; 0.1, 1.0 and 10.0 mg/kg orally
  DTH response of normal mice (result in words): significantly reduced the DTH response of normal mice
Lewis lung carcinoma; 0.1 mg/kg orally once a day
  Inhibition (development of solid tumor): 6.8%
  Tumor weight: 1.77 ± 0.47 g
Lewis lung carcinoma; 1.0 mg/kg orally once a day
  Inhibition (development of solid tumor): 46.3%
Lewis lung carcinoma; [5]
  Tumor weight: 1.02 ± 0.16 g
Lewis lung carcinoma; 10.0 mg/kg orally once a day
  Inhibition (development of solid tumor): 28.4%
  Tumor weight: 1.36 ± 0.31 g
Lewis lung carcinoma; 0.1, 1.0 and 10.0 mg/kg orally
  Growth of Lewis lung carcinoma (result in words): significantly inhibited the growth of Lewis lung carcinoma
Tumor bearing mice [4]; 0.1 mg/kg orally
  Foot pad swelling: 66.8 ± 7.5 ×0.01 mm
Tumor bearing mice [4]; 1.0 mg/kg orally, (***) p < 0.001 vs tumor bearing
  Foot pad swelling: 85.0 ± 5.9 ×0.01 mm
Tumor bearing mice [4]; 10.0 mg/kg orally, (***) p < 0.001 vs tumor bearing
  Foot pad swelling: 74.3 ± 4.9 ×0.01 mm
Tumor bearing mice [4]; 0.1, 1.0 and 10.0 mg/kg orally
  DTH response of tumor bearing mice (result in words): significantly restored the reduced DTH response to normal level
